The results in this text go back to US11826372B2, “Combinations including ABX196 for the treatment of cancer” (ABIVAX, priority 2016, dated 2023).

One experiment relates to CT-26 Colorectal Cancer. Nature of the experiment: Antitumor activity of ABX196 alone or with anti-PD-1 antibody in mice bearing subcutaneous CT-26 colorectal cancer (Example 6). Format: in vivo, mouse. To be noted: CT-26 in BALB/c mice; ABX196 100 ng IV Q1Dx1; anti-PD-1 Ab 10 mg/kg IP TWx2. The procedure:
Body weights were measured twice a week.

A further experiment deals with Melanoma B16F10 tumor. To be noted: for T/C (antitumor activity index): B16F10 in C57BL/6 mice, ABX196 100 ng i.v. or 10 ng i.t. Day 10, anti-PD-1 mAb 100 μg i.p. Days 6, 9, 12, 15 and 18.
The test system of the next experiment is Hepa 1-6 Hepatocarcinoma. To be noted: for Fraction alive / Fraction without detectable metastasis: Day 61, orthotopic Hepa 1-6 in C57BL/6 mice; for Tumor invasion of the liver at day 20, Dunn's multiple comparisons test vs Vehicle: Mean rank diff.: ABX196 100 ng IV D5, sorafenib 100 mg/kg PO Q1Dx21, doxorubicin 12 mg/kg IV D5, anti-PD-1 10 mg/kg IP D7/D10/D14/D17.

Setting [1] is: Unpaired t test two tailed, with Welch's correction, listed as ABX196 i.t.
Where [2] appears, read: Unpaired t test two tailed, with Welch's correction, listed as ABX196 i.v.
Setting [3] is: MBT-2 in C3H/HeJ mice, ABX196 100 ng IV Q1Dx1, anti-PD-1 Ab 10 mg/kg IP TWx2.

Where two headings read alike, the source gives them in different places.

Description for B16-F10 melanoma: Tumor was induced by subcutaneous injection of 1×10^6 of B16-F10 cells in 200 μL of PBS buffer into the right flank of 95 C57BL/6 female animals. The day of tumor cell injection in the right flank was considered as D0.
On D3, 90 out of ninety-five 95 were then randomized according to their body weight into 6 groups each of 15 animals (groups 1-6).
The viability and behavior were recorded every day. Body weights were measured twice a week until injection of tumor cells then thrice a week. The length and width of the tumor were measured thrice a week with calipers and the volume of the tumor was estimated by the formula:
The treatment efficacy was assessed in terms of the effects of the vaccine composition on the tumor volumes of treated animals relative to control animals. The following evaluation criteria of antitumor efficacy was determined using Vivo Manager® software (Biosystemes, Couternon, France): • Individual, mean and median tumor volumes were provided, • The number of tumor-free mice was provided.
Mice survival was also monitored and used as an efficacy parameter. Survival curves were drawn.
Percent treated/control (T/C (%) index) is calculated by dividing the median treated tumor volume by the median control tumor volume on day 14 and multiplying by 100. A T/C % equal or less than 42% is considered significant antitumor activity by the drug evaluation branch of the division of cancer treatment (NCI).
Tumor growth inhibition is also reflective to the antitumor effectiveness and is calculated following the formula:
Mean tumor volumes at defined times were analyzed with the GrapadPrism Software (Version 6.07) using the Kruskall-Wallis test for all the treatments. A significant difference between all treatments (P<0.05) was followed by pairwise comparisons using the Dunn's multiple comparison test. Survival was analyzed using the Log-rank (Mantel-Cox) test with GrapadPrism Software (Version 6.07). A significant difference between all treatments (P<0.05) was followed by pairwise comparisons using the Log-rank (Mantel-Cox) test.
Description for Hepa 1-6 Hepatocarcinoma: Tumor invasion was evaluated semi-quantitively by a visual evaluation of the percentage of tumor in the entire liver.
One million (1×106) of tumor cells in 50 μL of RPMI 1640 medium were transplanted via intra-splenic injection into 100 C57BL/6 mice. Briefly, a small left subcostal flank incision was made. Spleen was exteriorized. The spleen was exposed on the sterile gauze pad, and injected under visual control with the cell suspension with a 27-gauge needle. After the cell inoculation, the spleen was excised. The day of tumor cell injection was considered as DO.
The treatment started at D5. Ninety-nine animals (99) out of one hundred (100) were randomized according to their individual body weight into 3 groups of 13 animals and 5 groups of 12 animals using Vivo Manager® software (Biosystemes, Couternon, France). A statistical test (analysis of variance, ANOVA) was performed to test for homogeneity between groups. The treatment schedule was as follows: • Animals from group 1 received one IV injection of ABX196 vehicle at day 5, • Animals from group 2 received one daily PO administration of sorafenib at 100 mg/kg/adm for 21 consecutive days, starting at day 5, • Animals from group 3 received one IV injection of 100 ng of ABX196 on day 5 and one daily PO administration of sorafenib at 100 mg/kg/adm for 21 consecutive days, starting at day 5, • Animals from group 4 received one IV injection of Doxorubicin at 12 mg/kg on day 5, • Animals from group 5 received one IV injection of 100 ng of ABX196 and one IV injection of Doxorubicin at 12 mg/kg on day 5, • Animals from group 6 received 4 IP administrations of anti-PD-1 antibody on day 7, 10, 14 and 17 (Twice weekly×2), • Animals from group 7 received one IV injection of 100 ng of ABX196 on day 5 and 4 IP administrations of anti-PD-1 antibody on day 7, 10, 14 and 17 (Twice weekly×2).
At D19 and D20, 5 mice per group from group 1 to 8 were imaged (40 animals per day). A semi-quantitative analysis was then performed.
At the time of final mice termination (around D60), liver was weighted. The number of metastases was evaluated macroscopically and the localization, the appearance (shape, colour, consistency) and the size of each of them was recorded. Macroscopic photography of the liver was taken.
The treatment efficacy was assessed in terms of the effects of the test substance on the tumor volumes of treated animals relative to control animals. The following evaluation criteria of antitumor efficacy were determined: • Individual and/or mean (or median) measurement at D19-20 of tumor invasion within the liver using MRI imaging, • Measurement of circulating a-Fetoprotein in the plasma at D22, • Liver weight measured at termination, • Survival curves, • Median survival times.
Statistical analysis of tumor invasion between vehicle and each group at day 20.
Pair wise comparison with Dunn's test
Description for MBT-2 Bladder Cancer: ABX196 was administered at the dose of 100 ng per mouse. The anti-PD-1 antibody was administered at the dose of 10 mg/kg.
MBT-2 tumors were induced by subcutaneous injection of 1×10^6 cells in 200 μL of RPMI 1640 into the right flank of sixty-eight (68) female animals.
The treatment started when the tumors reached a mean volume of 80-120 mm^3. […] A statistical test (analysis of variance, ANOVA) was performed to test for homogeneity between groups. The treatment schedule was as follows: • Animals from group 1 received an IV injection of ABX196 vehicle and an IP injection of anti-PD-1 antibody vehicle, • Animals from group 2 received an IV injection of 100 ng of ABX196, • Animals from group 3 received twice weekly administrations of anti-PD-1 antibody, • Animals from group 4 received an IV injection of 100 ng of ABX196 and twice weekly administrations of anti-PD-1 antibody.
The viability and behavior were recorded every day. Body weights were measured twice a week. The length and width of the tumor were measured twice a week with calipers and the volume of the tumor was estimated by the formula:
All statistical analyses were performed using Vivo Manager® software (Biosystemes, Couternon, France). Statistical analysis of mean body weights, MBWC, mean tumor volumes at randomization, mean tumor volumes V, mean times to reach V and mean tumor doubling times were performed using ANOVA. Pairwise tests were performed using the Bonferroni/Dunn correction in case of significant ANOVA results. The log-Rank (Kaplan-Meier) test was used to compare the survival curves. A p value <0.05 was considered as significant.
Description for Melanoma B16F10 tumor: The study was performed on a syngeneic in vivo melanoma B16F10 tumor-bearing mouse model. B16F10 tumor cells were subcutaneously inoculated in immuno-competent C57BL/6 mice.
Melanoma B16F10 tumor cells were subcutaneously inoculated at day 0 by injecting cells in the flank of 8-10 weeks-old female C57BL/6 mice, and animals were then randomly assigned into control (vehicle PBS-treated) and treatments groups.
For the anti-PD-1 antibodies treatment, mice were intraperitoneally (IP) injected with anti-PD-1 antibodies at Day 6, 9, 12, 15 and 21. Furthermore, ABX196 was administered at 1 dose, intravenously or intratumorally, with one administration at Day 10 when mean of tumor size reached 100 mm^3.
The animal pharmacological groups for anti-tumor efficacy assessment were organized as such: • Control vehicle-treated group (PBS according to anti-PD-1 treatment schedule) • Anti-PD-1-treated group (at 1 dose, intraperitoneal administration) • ABX196-treated group (at 1 dose, Intravenous (iv) administration at Day10) • Combination-treated group (ABX196 at 1 dose, Intravenous (iv) administration at Day10 in combination with anti-PD-1 antibodies at 1 dose, intraperitoneal (ip) administration) • ABX196-treated group (at 1 dose, Intratumoral (it) administration at Day10) • Combination-treated group (ABX196 at 1 dose, Intratumoral (it) administration at Day10 in combination with anti-PD-1 antibodies at 1 dose, intraperitoneal (ip) administration)
Tumor volume and body weight of the animals were measured and recorded three times per week. A tumor volume exceeding 2000 mm3 or a weight loss greater than 15% relative to the initial weight of the animal were considered as endpoints.
B16F10 cells were implanted subcutaneously in the right flank of C57BL/6 immunocompetent mice (8 week-old female). The implantation procedure was as follows (all steps were carried out under sterile laminar flow conditions):
Mice (body weight around 20 g) were anesthetized with an intraperitoneal injection of 90 μL of anesthetic (ie 1.5 mg/Kg Ketamine and Xylazine 150 μg/Kg). The cells to be implanted were resuspended in sterile PBS and the volume needed to implant was loaded in 1 ml syringe with a needle (1,000,000 cells/100 μL).
Anti-PD-1 monoclonal antibodies (a-PD-1) treatment schedule was applied, at 100 μg by i.p. injection. Treatment was repeated 4 times, at Days 6, 9, 12, 15 and 18.
ABX196 was administered at Day 10 either: • by intravenous (i.v) injection at the dose of 100 ng per mouse; or • by intratumoral (i.t) injection at the dose of 10 ng per mouse
Starting from day 6 after B16F10 cell inoculation, all experimental animal groups were monitored 3 times per week over a 4 weeks period for the following parameters: • Tumor size: measured by physical examination, 3 times per week, • Body weight: monitored 3 times per week, and • Survival: represented in a Kaplan-Meier plot.

As for `CCCCCCCCCCCCCCCCCCCCCCCC(=O)N[C@@H](CO[C@H]1O[C@H](CNC(C)=O)[C@H](O)[C@H](O)[C@H]1O)[C@H](O)[C@H](O)CCCCCCCCCCCCCC` [ABX196], the “T/C (antitumor activity index)” value in the experiment on CT-26 Colorectal Cancer worked out at 51; with Melanoma B16F10 tumor (listed as ABX196 it), 53; in the experiment on Melanoma B16F10 tumor (listed as ABX196 iv) it was 51; with MBT-2 Bladder Cancer (setting [3]) it was 57. Besides, the “TGI (antitumor activity index)” value in the experiment with CT-26 Colorectal Cancer turned out to be 72; with MBT-2 Bladder Cancer (setting [3]), 43. Also, the “Effect on tumor volume (in words)” value in the experiment on Melanoma B16F10 tumor (B16F10 bearing mice, FIGS. 5 and 6) is given as “transient effect”. In the experiment with Melanoma B16F10 tumor (Unpaired t test two tailed, with Welch's correction, vs ABX196 i.v), the “Mean Tumor Volume at Day 17 (p value) vs ABX196 i.v” value was found to be 0.0554. Besides, the “Mean Tumor Volume at Day 17 (p value) vs Vehicle” value in the experiment on Melanoma B16F10 tumor (setting [1]) is 0.8942; in the experiment on Melanoma B16F10 tumor (setting [2]), 0.2838. In the experiment with Melanoma B16F10 tumor (Unpaired t test two tailed, with Welch's correction, vs αPD-1 + ABX196 i.v), the “Mean Tumor Volume at Day 17 (p value) vs αPD-1 + ABX196 i.v” value was under 0.0001. For the same compound, the “Mean Tumor Volume at Day 17 (p value) vs αPD-1” value in the experiment with Melanoma B16F10 tumor (setting [1]) came out at 0.2031; with Melanoma B16F10 tumor (setting [2]), 0.7081. Further, the “Mean Tumor Volume at Day 17 (Significativity) vs αPD-1 + ABX196 i.v” value in the experiment with Melanoma B16F10 tumor (vs αPD-1 + ABX196 i.v) is “**** (****p < 0.0001)”. For the same compound, the “Statistical analysis of mice survival, pairwise p vs ABX196 + Anti-PD-1” value in the experiment on MBT-2 Bladder Cancer (MBT-2, Log-Rank (Mantel-cox) test, vs ABX196 + Anti-PD-1) was “***0.0002”. Moreover, the “Statistical analysis of mice survival, pairwise p vs Vehicle” value in the experiment on MBT-2 Bladder Cancer (MBT-2, Log-Rank (Mantel-cox) test, vs Vehicle) is “*0.02”. Further, the “Median Survival” value in the experiment with MBT-2 Bladder Cancer (MBT-2 bearing mice, ABX196 100 ng IV, anti-PD-1 Ab 10 mg/kg IP TWx2) was determined as 27 days.

For the compound `COc1cccc2c1C(=O)c1c(O)c3c(c(O)c1C2=O)C[C@@](O)(C(=O)CO)C[C@@H]3O[C@H]1C[C@H](N)[C@H](O)[C@H](C)O1` [Doxorubicin, doxorubicin], the “Tumor growth in comparison to the vehicle-treated group (in words)” value with B16-F10 melanoma (B16-F10 tumors in C57BL/6 mice, FIGS. 1 and 3) was “weak and non-significant”. Further, in the experiment with B16-F10 melanoma (C57BL/6 mice, s.c. B16-F10 (1×10^6 cells), CL II-TRP2/ABX196 50 μg/1 μg IV D3, anti-PD-1 Ab 10 mg/kg IP D10/D14/D17/D21, doxorubicin 12 mg/kg IV D7), the “Median Survival” value is listed as 21 days. The “Statistical analysis of tumor growth at D17, pairwise comparison with TRP2-ABX196” value in the experiment on B16-F10 melanoma (D17, Dunn's multiple comparison test, vs TRP2-ABX196) is “ns”. In addition, the “Statistical analysis of tumor growth at D17, pairwise comparison with TRP2-ABX196 + Doxo.” value in the experiment on B16-F10 melanoma (D17, Dunn's multiple comparison test, vs TRP2-ABX196 + Doxo.) is listed as “* (*P < 0.05)”. Also, the “Statistical analysis of tumor growth at D17, pairwise comparison with TRP2-ABX196 + α-PD-1” value in the experiment with B16-F10 melanoma (D17, Dunn's multiple comparison test, vs TRP2-ABX196 + α-PD-1) is “ns”. In addition, the “Statistical analysis of tumor growth at D17, pairwise comparison with Vehic.” value with B16-F10 melanoma (D17, Dunn's multiple comparison test, vs Vehic.) is on record as “ns”. In the experiment with B16-F10 melanoma (D17, Dunn's multiple comparison test, vs α-PD-1), the “Statistical analysis of tumor growth at D17, pairwise comparison with α-PD-1” value is given as “ns”. For the same compound, the “Statistical analysis of tumor growth at D19, pairwise comparison with TRP2-ABX196” value in the experiment on B16-F10 melanoma (D19, Dunn's multiple comparison test, vs TRP2-ABX196) is on record as “ns”. In addition, the “Statistical analysis of tumor growth at D19, pairwise comparison with TRP2-ABX196 + Doxo.” value in the experiment with B16-F10 melanoma (D19, Dunn's multiple comparison test, vs TRP2-ABX196 + Doxo.) is reported as “* (*P < 0.05)”. For the same compound, in the experiment on B16-F10 melanoma (D19, Dunn's multiple comparison test, vs TRP2-ABX196 + α-PD-1), the “Statistical analysis of tumor growth at D19, pairwise comparison with TRP2-ABX196 + α-PD-1” value is listed as “ns”. Moreover, the “Statistical analysis of tumor growth at D19, pairwise comparison with Vehic.” value with B16-F10 melanoma (D19, Dunn's multiple comparison test, vs Vehic.) was “ns”. For the same compound, in the experiment with B16-F10 melanoma (D19, Dunn's multiple comparison test, vs α-PD-1), the “Statistical analysis of tumor growth at D19, pairwise comparison with α-PD-1” value was “ns”. In addition, in the experiment with B16-F10 melanoma (Log-rank (Mantel-Cox) test, listed as printed as α-PD-1), the “Statistical analysis of mice survival, pairwise P vs α-PD-1 (row head as printed)” value came to 0.624. Further, the “Statistical analysis of mice survival, pairwise P vs Vehicle” value in the experiment with B16-F10 melanoma (Log-rank (Mantel-Cox) test, vs Vehicle) is 0.0015. For the same compound, the “T/C (anti-tumor activity index)” value with B16-F10 melanoma (day 14, median treated / median control tumor volume ×100, B16-F10 in C57BL/6 mice) is recorded as 56.3%. Besides, in the experiment with Hepa 1-6 Hepatocarcinoma, the Fraction alive is given as 9/12 and the “Fraction without detectable metastasis” value is on record as 9/12. In addition, the “Tumor invasion of the liver at day 20, Dunn's multiple comparisons test vs Vehicle: Mean rank diff.” value in the experiment on Hepa 1-6 Hepatocarcinoma (MRI, day 20) worked out at 28.52. In the experiment with Hepa 1-6 Hepatocarcinoma (MRI, day 20, vs Vehicle), the “Tumor invasion of the liver at day 20, Dunn's multiple comparisons test vs Vehicle: Significant?” value was “Yes”.

For the compound `CNC(=O)c1cc(Oc2ccc(NC(=O)Nc3ccc(Cl)c(C(F)(F)F)c3)cc2)ccn1` [Sorafenib], in the experiment with Hepa 1-6 Hepatocarcinoma, the Fraction alive is 5/13 and the “Fraction without detectable metastasis” value is reported as 5/13. Further, the “Tumor invasion of the liver at day 20, Dunn's multiple comparisons test vs Vehicle: Mean rank diff.” value in the experiment with Hepa 1-6 Hepatocarcinoma (MRI, day 20) came to 8.644. In the experiment with Hepa 1-6 Hepatocarcinoma (MRI, day 20, vs Vehicle), the “Tumor invasion of the liver at day 20, Dunn's multiple comparisons test vs Vehicle: Significant?” value is given as “No” and the “Tumor invasion of the liver at day 20, Dunn's multiple comparisons test vs Vehicle: Summary” value is “ns”.
